Results on eight compounds are retold here after ChEMBL document CHEMBL1201862, “PubChem BioAssay data set” (2004).

Some test systems named below: OVCAR-5; RXF 393; SF-539; KM12; SNB-19; NCI-H226; SW-620; MOLT-4; Hs-578T; HOP-92; SK-MEL-5; SK-OV-3; M14; RPMI-8226; SR; HOP-62; HCT-15; NCI/ADR-RES; Malme-3M; OVCAR-8.
Common to all, as to assay: NCI anticancer screen, dose series, 48 h

Structures are written as SMILES.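 Method: 48-hour compound exposure of cells in 96-well plates, five concentrations, linear interpolation of endpoints. The concentration for 50% growth inhibition is given as GI50.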 The source made the active and inactive calls. Rule as the data show it: active = GI50 up to about 1.1 µM and inactive = higher.

In the case of `COc1ccc2oc(=O)c(-c3csc(C)n3)cc2c1`, the GI50 in the assay on OVCAR-5 is > 100 µM (inactive); with RXF 393, 30.5 µM (inactive); with SF-539 it was 22.2 µM (inactive); in the assay with KM12 it was > 100 µM (inactive); in the assay on SNB-19, 28.8 µM (inactive); with NCI-H226 it was 29.2 µM (inactive). In addition, the GI50 was > 100 µM (inactive) in the assay on SW-620; > 100 µM (inactive) with MOLT-4; 30.7 µM (inactive) in the assay on Hs-578T; 19.5 µM (inactive) in the assay with HOP-92; > 100 µM (inactive) with SK-MEL-5; 28.1 µM (inactive) in the assay on SK-OV-3. Also, the GI50 in the assay on M14 is 75.2 µM (inactive); with RPMI-8226 it was > 100 µM (inactive); in the assay with SR, > 100 µM (inactive); in the assay with HOP-62, 31 µM (inactive); with HCT-15 it was greater than 100 µM.
With `CCC(C)C(NC(=O)c1c2ccccc2nc2ccccc12)C(=O)O` (stereo unspecified), the GI50 with OVCAR-5 was > 100 µM (inactive); with NCI/ADR-RES it was > 100 µM (inactive); in the assay on SF-539, 60.7 µM (inactive); with KM12 it was > 100 µM (inactive); in the assay with SNB-19, > 100 µM (inactive); in the assay with NCI-H226, > 100 µM (inactive). Also, the GI50 in the assay with SW-620 is > 100 µM (inactive); in the assay with MOLT-4 it was > 100 µM (inactive); with Malme-3M, 51.2 µM (inactive); with HOP-92, > 100 µM (inactive); with SK-MEL-5, 60 µM (inactive); in the assay on SK-OV-3 it was > 100 µM (inactive). The GI50 with M14 is > 100 µM (inactive); in the assay on OVCAR-8, > 100 µM (inactive); in the assay with RPMI-8226, > 100 µM (inactive); with SR, > 100 µM (inactive); in the assay on HOP-62, > 100 µM (inactive); with HCT-15, 41 µM.
With `C/C(=N/N)c1sc(-c2nc(C)c(/C(C)=N\N)s2)nc1C`, the GI50 in the assay with OVCAR-5, in the assay on RXF 393, in the assay on SF-539, with KM12, in the assay with SNB-19 and with NCI-H226 was > 100 µM (inactive) throughout. For the same compound, the GI50 with SW-620 was > 100 µM (inactive); in the assay on MOLT-4 it was 24.5 µM (inactive); with Malme-3M, > 100 µM (inactive); in the assay with HOP-92 it was > 100 µM (inactive); with SK-MEL-5 it was > 100 µM (inactive); with SK-OV-3 it was > 100 µM (inactive). Moreover, the GI50 with M14 was > 95.3 µM (inactive); with OVCAR-8, > 86.1 µM (inactive); in the assay with RPMI-8226, 35.7 µM (inactive); with SR, 16.4 µM (inactive); in the assay on HOP-62, > 100 µM (inactive); with HCT-15, greater than 43 µM.
Turning to `COc1ccc2c(c1)C(=O)c1ccc(OC)cc1C2=S`, the GI50 in the assay on OVCAR-5, with RXF 393, in the assay on SF-539, in the assay on KM12, in the assay on SNB-19 and in the assay on NCI-H226 was > 100 µM (inactive) throughout. Besides, the GI50 with SW-620, in the assay with MOLT-4, in the assay with Malme-3M, in the assay with HOP-92, in the assay on SK-MEL-5 and in the assay on SK-OV-3 was > 100 µM (inactive) each time. Moreover, the GI50 was > 100 µM (inactive) with M14; > 100 µM (inactive) with OVCAR-8; > 100 µM (inactive) in the assay with RPMI-8226; > 100 µM (inactive) in the assay with SR; > 100 µM (inactive) in the assay on HOP-62; greater than 100 µM in the assay on HCT-15.
For `CC1(O)/C(=N/O)CC2CC1C2(C)C` (stereo unspecified), the GI50 in the assay with OVCAR-5, in the assay with RXF 393, in the assay with KM12, with SNB-19, in the assay with NCI-H226 and in the assay on SW-620 was > 100 µM (inactive) in each case. The GI50 in the assay with MOLT-4, in the assay on Hs-578T, in the assay on Malme-3M, in the assay with HOP-92, in the assay with SK-MEL-5 and in the assay with M14 was > 100 µM (inactive) each time. Further, the GI50 in the assay with OVCAR-8 was > 100 µM (inactive); in the assay on RPMI-8226 it was > 100 µM (inactive); with SR, > 10 µM (inactive); in the assay on HCT-15, greater than 100 µM.
Regarding `CCCNc1ncnc2c1ncn2C`, the GI50 in the assay on RXF 393 is > 100 µM (inactive); with NCI/ADR-RES it was 68.4 µM (inactive); in the assay on SF-539, 34.2 µM (inactive); in the assay with KM12, > 100 µM (inactive); in the assay on SNB-19, > 100 µM (inactive); in the assay on NCI-H226, > 100 µM (inactive). Besides, the GI50 is 94.4 µM (inactive) in the assay with SW-620; 45.3 µM (inactive) in the assay on MOLT-4; 45.3 µM (inactive) in the assay on Malme-3M; 37.6 µM (inactive) in the assay with HOP-92; > 100 µM (inactive) with SK-MEL-5; > 100 µM (inactive) in the assay on SK-OV-3. For the same compound, the GI50 in the assay on M14 is 58.5 µM (inactive); in the assay on OVCAR-8 it was 48.5 µM (inactive); in the assay with RPMI-8226 it was 20.6 µM (inactive); with HOP-62 it was 35.2 µM (inactive); with HCT-15, 86.9 µM.
Take `COc1cc2c[n+](C)c3c4cc(OC)c(OC)cc4c(OCc4ccccc4)cc3c2cc1OC`: the GI50 with OVCAR-5 was > 100 µM (inactive); in the assay on RXF 393, 1.6 µM (inactive); in the assay with NCI/ADR-RES it was > 100 µM (inactive); in the assay with SF-539 it was 0.114 µM (active); in the assay with KM12 it was 2.1 µM (inactive); with SNB-19 it was 0.0681 µM (active). Further, the GI50 in the assay on NCI-H226 was 0.231 µM (active); with SW-620 it was 0.805 µM (active); with MOLT-4 it was 0.592 µM (active); in the assay with Malme-3M it was 1.29 µM (inactive); in the assay with HOP-92, 0.966 µM (active); in the assay with SK-MEL-5 it was 0.838 µM (active). Moreover, the GI50 is 11.7 µM (inactive) in the assay on SK-OV-3; 1.77 µM (inactive) with M14; 1.91 µM (inactive) in the assay with OVCAR-8; 5.28 µM (inactive) in the assay on RPMI-8226; 0.14 µM (active) in the assay with SR; 1.86 µM (inactive) in the assay with HOP-62. Further, the GI50 in the assay with HCT-15 was greater than 100 µM.
On to `O=C(O)c1ccccc1Cc1ccco1`, for which the GI50 with OVCAR-5, with RXF 393, with SF-539, in the assay with KM12, in the assay with SNB-19 and in the assay on NCI-H226 was > 100 µM (inactive) each time. Besides, the GI50 in the assay on SW-620, in the assay with MOLT-4, in the assay with Malme-3M, in the assay on HOP-92, in the assay on SK-MEL-5 and in the assay with SK-OV-3 was > 100 µM (inactive) in each case. In addition, the GI50 in the assay with M14 is > 100 µM (inactive); in the assay with OVCAR-8, > 100 µM (inactive); with RPMI-8226, > 100 µM (inactive); with SR it was > 100 µM (inactive); in the assay on HOP-62 it was > 100 µM (inactive); with HCT-15 it was greater than 100 µM.
